Data reported in ChEMBL document CHEMBL3400133, “Three new fusidic acid derivatives and their antibacterial activity” (2015).
Calls of active or inactive are those of the source. The rule behind the calls is not given here.

Tests used:
Staphylococcus aureus [1] = test: Antibacterial activity against methicillin-resistant Staphylococcus aureus ATCC 33591 assessed as inhibition of microbial growth at 0.064 ug/ml to 125 ug/ml incubated at 37 degC for 20 hrs; type: functional; conditions: ATCC 33591, 20 h
Staphylococcus aureus [2] = test: Antibacterial activity against Staphylococcus aureus ATCC 25923 assessed as inhibition of microbial growth at 0.064 ug/ml to 125 ug/ml incubated at 37 degC for 20 hrs; type: functional; conditions: ATCC 25923, 20 h
Escherichia coli = test: Antibacterial activity against Escherichia coli XL-1 Blue assessed as inhibition of microbial growth at 0.064 ug/ml to 125 ug/ml incubated at 37 degC for 20 hrs; type: functional, organism-based

Compound	MIC (Staphylococcus aureus [1]) [mg/L]	MIC (Staphylococcus aureus [2]) [mg/L]	MIC (Escherichia coli)
CC(=O)O[C@@H]1[C@H]2[C@H](C)[C@H](O)CC[C@]2(C)[C@@H]2CC[C@H]3/C(=C(\CCC=C(C)C)C(=O)O)[C@@H](OC(C)=O)C[C@]3(C)[C@@]2(C)[C@H]1O	8	8	inactive
CC(=O)O[C@H]1C[C@@]2(C)[C@@H](CC[C@H]3[C@@]4(C)CC[C@@H](O)[C@@H](C)[C@@H]4[C@@H](O)[C@H](OC(C)=O)[C@@]32C)/C1=C(\CCC=C(C)C)C(=O)O	125	64	inactive
CC(=O)OC1C[C@@]2(C)[C@@H](CC[C@H]3[C@@]4(C)CCC(=O)[C@@H](C)[C@@H]4[C@@H](O)[C@H](O)[C@@]32C)/C1=C(\CCC=C(C)C)C(=O)O (single isomer, unassigned)	> 125	> 125	inactive
CC(=O)OC1C[C@@]2(C)[C@@H](CC[C@H]3[C@@]4(C)CCC(=O)[C@@H](C)[C@@H]4[C@@H](O)[C@H](OC(C)=O)[C@@]32C)/C1=C(\CCC=C(C)C)C(=O)O (single isomer, unassigned)	> 125	64	inactive
CC(=O)OC1C[C@@]2(C)[C@@H](CC[C@H]3[C@@]4(C)CCC(=O)[C@@H](C)[C@@H]4[C@@H](OC(C)=O)[C@H](O)[C@@]32C)/C1=C(\CCC=C(C)C)C(=O)O (single isomer, unassigned)	8	4	inactive
NC[C@H]1O[C@H](O[C@H]2[C@H](O)[C@@H](O[C@H]3O[C@H](CO)[C@@H](O)[C@H](N)[C@H]3O)[C@H](N)C[C@@H]2N)[C@H](O)[C@@H](O)[C@@H]1O [KANAMYCIN]	> 125	2	–
